Assay results published in ChEMBL document CHEMBL4507268 (2021).

Assays:
Conditions in all cases: Compound concentration 1.0 uM
[1] = molecular target: Cyclin-dependent kinase 2/cyclin A (Homo sapiens) (UniProt P24941+P20248+P78396)
[2] = molecular target: CDK3/cyclin E (Homo sapiens) (UniProt P24864+O96020+Q00526)
[3] = molecular target: Dual specificity tyrosine-phosphorylation-regulated kinase 3 (Homo sapiens) (UniProt O43781)
[4] = molecular target: Vascular endothelial growth factor receptor 3 (Homo sapiens) (UniProt P35916)
[5] = molecular target: Serine/threonine-protein kinase/endoribonuclease IRE1 (Homo sapiens) (UniProt O75460)
[6] = molecular target: LIM domain kinase 2 (Homo sapiens) (UniProt P53671)
[7] = molecular target: Mitogen-activated protein kinase 1 (Homo sapiens) (UniProt P28482)
[8] = molecular target: T1, Mitogen-activated protein kinase kinase kinase kinase 3 (Homo sapiens) (UniProt Q8IVH8)
T1 sequence (whole entry): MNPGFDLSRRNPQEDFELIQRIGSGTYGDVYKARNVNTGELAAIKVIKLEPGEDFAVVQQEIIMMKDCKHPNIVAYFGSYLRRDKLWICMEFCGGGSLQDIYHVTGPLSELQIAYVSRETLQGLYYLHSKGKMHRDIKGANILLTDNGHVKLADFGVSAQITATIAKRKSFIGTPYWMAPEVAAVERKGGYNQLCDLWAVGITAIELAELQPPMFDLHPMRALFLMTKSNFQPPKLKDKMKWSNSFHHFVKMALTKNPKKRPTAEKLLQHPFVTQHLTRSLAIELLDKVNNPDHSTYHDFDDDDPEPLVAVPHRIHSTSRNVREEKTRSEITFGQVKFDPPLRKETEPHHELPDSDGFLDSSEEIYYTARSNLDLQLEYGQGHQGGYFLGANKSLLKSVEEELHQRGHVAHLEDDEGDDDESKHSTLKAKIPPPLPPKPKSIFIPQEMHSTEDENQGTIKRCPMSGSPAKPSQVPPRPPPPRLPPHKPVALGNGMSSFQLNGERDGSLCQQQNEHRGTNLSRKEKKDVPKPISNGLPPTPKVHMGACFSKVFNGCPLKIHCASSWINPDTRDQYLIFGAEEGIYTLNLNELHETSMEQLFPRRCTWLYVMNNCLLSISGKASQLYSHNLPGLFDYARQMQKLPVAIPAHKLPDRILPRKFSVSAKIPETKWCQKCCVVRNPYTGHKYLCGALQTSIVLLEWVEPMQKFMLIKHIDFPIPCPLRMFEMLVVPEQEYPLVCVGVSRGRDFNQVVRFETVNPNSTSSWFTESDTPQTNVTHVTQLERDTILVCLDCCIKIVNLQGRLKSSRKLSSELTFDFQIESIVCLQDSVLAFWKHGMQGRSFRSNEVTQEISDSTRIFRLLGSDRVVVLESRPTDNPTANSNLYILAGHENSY

[9] = molecular target: Mitogen-activated protein kinase kinase kinase kinase 4 (Homo sapiens) (UniProt O95819)
[10] = molecular target: MAP kinase-interacting serine/threonine-protein kinase 2 (Homo sapiens) (UniProt Q9HBH9)
[11] = molecular target: Serine/threonine-protein kinase pim-2 (Homo sapiens) (UniProt Q9P1W9)
[12] = molecular target: RAC-alpha serine/threonine-protein kinase (Homo sapiens) (UniProt P31749)
[13] = molecular target: Protein kinase C alpha type (Homo sapiens) (UniProt P17252)
[14] = molecular target: Protein kinase C eta type (Homo sapiens) (UniProt P24723)
[15] = molecular target: T2, Serine/threonine-protein kinase TAO1 (Homo sapiens) (UniProt Q7L7X3)
T2 sequence (whole entry): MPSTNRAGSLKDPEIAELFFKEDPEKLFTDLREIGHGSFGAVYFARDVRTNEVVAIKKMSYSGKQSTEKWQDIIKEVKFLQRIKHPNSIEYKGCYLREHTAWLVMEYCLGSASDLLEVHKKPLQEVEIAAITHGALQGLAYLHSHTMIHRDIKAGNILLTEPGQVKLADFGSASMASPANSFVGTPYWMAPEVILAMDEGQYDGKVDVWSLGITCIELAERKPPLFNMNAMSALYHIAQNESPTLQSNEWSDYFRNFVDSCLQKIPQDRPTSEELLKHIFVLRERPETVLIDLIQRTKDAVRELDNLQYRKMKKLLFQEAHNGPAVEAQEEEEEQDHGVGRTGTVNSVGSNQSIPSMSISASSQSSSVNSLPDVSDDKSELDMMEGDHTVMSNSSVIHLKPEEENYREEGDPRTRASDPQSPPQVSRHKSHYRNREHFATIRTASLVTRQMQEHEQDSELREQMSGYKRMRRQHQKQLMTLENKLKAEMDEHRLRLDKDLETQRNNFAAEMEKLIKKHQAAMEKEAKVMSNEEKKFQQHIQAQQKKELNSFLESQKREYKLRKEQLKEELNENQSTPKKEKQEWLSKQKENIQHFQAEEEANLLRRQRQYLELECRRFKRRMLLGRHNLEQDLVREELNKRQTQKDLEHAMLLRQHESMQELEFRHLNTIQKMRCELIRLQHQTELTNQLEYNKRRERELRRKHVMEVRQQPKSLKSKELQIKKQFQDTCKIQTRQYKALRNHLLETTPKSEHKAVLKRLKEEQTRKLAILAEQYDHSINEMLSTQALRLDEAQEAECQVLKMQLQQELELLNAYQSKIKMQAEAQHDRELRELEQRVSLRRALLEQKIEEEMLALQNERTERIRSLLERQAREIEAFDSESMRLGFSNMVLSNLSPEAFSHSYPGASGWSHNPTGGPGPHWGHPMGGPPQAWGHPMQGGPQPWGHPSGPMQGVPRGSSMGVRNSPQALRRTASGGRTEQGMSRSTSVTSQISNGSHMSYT

[16] = molecular target: PI3-kinase p110-delta/p85-alpha (Homo sapiens) (UniProt P27986+O00329)

Measured: % residual kinase activity

Sequence of Mitogen-activated protein kinase kinase kinase kinase 4 (Homo sapiens) (O95819 2-1239 limits assumed): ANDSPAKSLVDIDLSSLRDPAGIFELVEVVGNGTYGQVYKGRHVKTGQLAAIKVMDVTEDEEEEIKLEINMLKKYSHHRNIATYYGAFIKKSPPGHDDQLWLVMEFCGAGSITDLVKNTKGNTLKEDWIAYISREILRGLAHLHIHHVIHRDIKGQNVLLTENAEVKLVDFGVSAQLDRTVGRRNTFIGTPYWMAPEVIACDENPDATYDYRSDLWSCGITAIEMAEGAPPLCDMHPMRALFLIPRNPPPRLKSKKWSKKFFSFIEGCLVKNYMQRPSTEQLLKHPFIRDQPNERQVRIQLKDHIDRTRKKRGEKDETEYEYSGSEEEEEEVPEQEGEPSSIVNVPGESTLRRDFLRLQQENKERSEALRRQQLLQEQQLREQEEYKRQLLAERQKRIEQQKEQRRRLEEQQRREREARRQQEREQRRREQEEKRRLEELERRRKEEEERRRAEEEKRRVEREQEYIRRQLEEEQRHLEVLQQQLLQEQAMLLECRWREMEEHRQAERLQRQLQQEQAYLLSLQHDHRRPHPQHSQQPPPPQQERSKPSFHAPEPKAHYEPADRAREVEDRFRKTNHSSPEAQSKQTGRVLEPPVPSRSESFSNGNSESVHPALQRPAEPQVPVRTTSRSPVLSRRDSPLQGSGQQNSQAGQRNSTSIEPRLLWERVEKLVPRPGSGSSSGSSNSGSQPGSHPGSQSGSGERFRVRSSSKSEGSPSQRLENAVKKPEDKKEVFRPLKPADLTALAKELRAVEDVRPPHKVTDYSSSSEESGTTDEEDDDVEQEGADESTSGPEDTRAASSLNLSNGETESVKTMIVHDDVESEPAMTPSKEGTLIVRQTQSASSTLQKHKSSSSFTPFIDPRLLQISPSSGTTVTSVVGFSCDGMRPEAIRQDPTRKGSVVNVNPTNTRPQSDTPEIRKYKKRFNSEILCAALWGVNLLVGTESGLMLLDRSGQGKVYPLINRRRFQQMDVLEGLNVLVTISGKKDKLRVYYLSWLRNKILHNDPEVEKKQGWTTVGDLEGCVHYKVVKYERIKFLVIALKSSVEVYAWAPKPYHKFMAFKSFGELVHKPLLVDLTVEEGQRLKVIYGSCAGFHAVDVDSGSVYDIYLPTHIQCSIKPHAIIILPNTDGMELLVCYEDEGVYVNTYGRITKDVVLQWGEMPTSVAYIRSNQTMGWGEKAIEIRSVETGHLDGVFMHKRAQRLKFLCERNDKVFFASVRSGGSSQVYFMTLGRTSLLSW
Sequence of Vascular endothelial growth factor receptor 3 (Homo sapiens) (P35916 whole entry): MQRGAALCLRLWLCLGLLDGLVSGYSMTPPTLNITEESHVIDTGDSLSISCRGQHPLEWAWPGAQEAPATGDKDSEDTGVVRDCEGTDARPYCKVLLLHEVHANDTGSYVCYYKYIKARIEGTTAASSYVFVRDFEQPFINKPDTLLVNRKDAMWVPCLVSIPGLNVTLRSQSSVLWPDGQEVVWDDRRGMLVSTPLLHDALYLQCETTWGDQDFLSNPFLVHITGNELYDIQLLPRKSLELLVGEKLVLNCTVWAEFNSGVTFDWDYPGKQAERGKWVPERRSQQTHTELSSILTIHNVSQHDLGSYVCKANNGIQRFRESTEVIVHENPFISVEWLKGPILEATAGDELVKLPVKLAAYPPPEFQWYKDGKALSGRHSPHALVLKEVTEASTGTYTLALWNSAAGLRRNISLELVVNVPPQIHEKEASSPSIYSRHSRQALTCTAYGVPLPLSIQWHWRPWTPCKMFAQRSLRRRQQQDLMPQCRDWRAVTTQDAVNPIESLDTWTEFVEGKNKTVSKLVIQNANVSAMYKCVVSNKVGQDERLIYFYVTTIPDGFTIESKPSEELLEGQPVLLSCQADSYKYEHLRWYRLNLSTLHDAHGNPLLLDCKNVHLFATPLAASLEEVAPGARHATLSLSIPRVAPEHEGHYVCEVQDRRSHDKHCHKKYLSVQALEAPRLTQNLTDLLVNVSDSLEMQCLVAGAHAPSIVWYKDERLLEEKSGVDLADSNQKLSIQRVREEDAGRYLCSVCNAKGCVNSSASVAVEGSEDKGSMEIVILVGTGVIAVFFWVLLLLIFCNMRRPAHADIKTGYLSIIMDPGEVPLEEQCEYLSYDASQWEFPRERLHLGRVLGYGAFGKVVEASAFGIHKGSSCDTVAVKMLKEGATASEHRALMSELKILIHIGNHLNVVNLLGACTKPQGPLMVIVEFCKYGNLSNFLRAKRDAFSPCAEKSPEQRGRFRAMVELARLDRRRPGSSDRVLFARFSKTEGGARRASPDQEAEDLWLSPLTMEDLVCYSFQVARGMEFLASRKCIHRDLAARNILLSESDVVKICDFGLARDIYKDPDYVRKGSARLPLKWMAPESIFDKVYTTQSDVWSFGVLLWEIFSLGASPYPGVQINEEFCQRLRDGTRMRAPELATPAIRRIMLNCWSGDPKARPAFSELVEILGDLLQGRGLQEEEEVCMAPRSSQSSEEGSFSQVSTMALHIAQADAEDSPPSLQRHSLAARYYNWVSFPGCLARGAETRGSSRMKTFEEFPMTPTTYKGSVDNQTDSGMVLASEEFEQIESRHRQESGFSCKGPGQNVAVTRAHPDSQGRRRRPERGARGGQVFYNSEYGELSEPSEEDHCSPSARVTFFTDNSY
Sequence of LIM domain kinase 2 (Homo sapiens) (P53671 whole entry, looked up, the tested form may be a part): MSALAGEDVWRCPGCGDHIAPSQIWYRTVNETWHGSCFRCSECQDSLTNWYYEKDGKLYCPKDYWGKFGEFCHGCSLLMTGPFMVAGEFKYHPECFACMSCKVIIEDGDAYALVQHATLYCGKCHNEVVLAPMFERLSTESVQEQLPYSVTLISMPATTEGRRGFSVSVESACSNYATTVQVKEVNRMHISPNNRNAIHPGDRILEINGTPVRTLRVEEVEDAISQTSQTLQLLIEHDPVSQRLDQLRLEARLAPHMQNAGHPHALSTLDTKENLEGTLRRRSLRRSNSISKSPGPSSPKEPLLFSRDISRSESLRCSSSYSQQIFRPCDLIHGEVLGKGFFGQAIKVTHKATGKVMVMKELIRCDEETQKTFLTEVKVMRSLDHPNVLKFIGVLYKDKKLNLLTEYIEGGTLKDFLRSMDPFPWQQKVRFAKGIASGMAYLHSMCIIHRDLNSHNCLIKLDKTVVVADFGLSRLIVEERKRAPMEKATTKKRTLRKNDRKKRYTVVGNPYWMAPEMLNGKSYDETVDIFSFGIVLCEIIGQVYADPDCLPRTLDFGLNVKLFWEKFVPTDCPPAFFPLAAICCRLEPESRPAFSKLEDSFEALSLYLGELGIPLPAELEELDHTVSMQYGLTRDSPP
Sequence of Serine/threonine-protein kinase/endoribonuclease IRE1 (Homo sapiens) (O75460 19-977 limits assumed): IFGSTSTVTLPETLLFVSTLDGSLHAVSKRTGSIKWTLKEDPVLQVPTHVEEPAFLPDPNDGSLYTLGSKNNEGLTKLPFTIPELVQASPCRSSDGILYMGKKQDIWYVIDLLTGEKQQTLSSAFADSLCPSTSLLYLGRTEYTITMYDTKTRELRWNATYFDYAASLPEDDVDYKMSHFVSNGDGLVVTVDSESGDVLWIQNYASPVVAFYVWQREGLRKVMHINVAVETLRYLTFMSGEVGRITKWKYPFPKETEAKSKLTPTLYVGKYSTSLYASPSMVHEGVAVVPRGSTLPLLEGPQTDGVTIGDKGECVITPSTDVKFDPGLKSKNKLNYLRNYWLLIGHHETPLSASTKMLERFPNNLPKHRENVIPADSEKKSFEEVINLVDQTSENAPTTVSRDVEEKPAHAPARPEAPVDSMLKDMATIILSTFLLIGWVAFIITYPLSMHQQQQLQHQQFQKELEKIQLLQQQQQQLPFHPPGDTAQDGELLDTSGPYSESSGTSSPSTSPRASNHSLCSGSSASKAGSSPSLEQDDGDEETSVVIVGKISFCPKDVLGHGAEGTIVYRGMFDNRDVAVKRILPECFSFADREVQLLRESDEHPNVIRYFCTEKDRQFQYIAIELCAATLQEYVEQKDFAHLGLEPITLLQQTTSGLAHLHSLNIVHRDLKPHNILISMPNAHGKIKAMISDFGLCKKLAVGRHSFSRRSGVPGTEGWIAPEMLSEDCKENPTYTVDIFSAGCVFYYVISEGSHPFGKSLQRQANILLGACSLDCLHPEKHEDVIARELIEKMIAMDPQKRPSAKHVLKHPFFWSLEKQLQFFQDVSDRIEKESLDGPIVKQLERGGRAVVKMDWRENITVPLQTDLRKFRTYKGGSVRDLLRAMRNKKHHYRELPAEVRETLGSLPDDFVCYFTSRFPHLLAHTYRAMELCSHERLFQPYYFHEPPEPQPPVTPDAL

CN1CCN(c2cnc3c(C4CCN(C(=O)c5ccc(OC(F)(F)F)cc5N)CC4)ncnc3c2)CC1 [BAY-885]
inactive: [1] 105% | [2] 106% | [3] 103% | [4] 98% | [5] 110% | [6] 104% | [7] 116% | [8] 102% | [9] 99% | [10] 99% | [11] 110% | [12] 113% | [13] 107% | [14] 115% | [15] 100% | [16] 102%
